US9120787B2, “HIV replication inhibitors” (priority 2011, dated 2015)
Where two headings read alike, the source gives them in different places.

How the values were obtained:
HIV-1Ba-L [1] = assay: HIV-1Ba-L replication in PBMCs (supernatant RT end-point)
Description: Evaluation of Dihydropyrimidines vs. HIV-1Ba-L in Peripheral Blood Mononuclear Cells (PBMCs)
Cultures of pooled phytohemagglutinin stimulated peripheral blood mononuclear cells (PBMC) were seeded into a 96-well plate at plating density of 5×10^4 cells/well. Compounds were serially diluted into media in ½-log increments using a high test of […] and […] of each concentration (nine total concentrations). Cells were infected with HIV strains HIV-1Ba-L and NL4-3 at an MOI=0.1. The PBMCs were cultured for seven days in an humidified incubator maintained at 37° C., 5% CO2 atmosphere. At the assay end-point, the supernatant was collected and analyzed for reverse transcriptase activity. For the RT assay, tritiated thymidine triphosphate (3H-TTP, 80 Ci/mmol) was diluted 1:1 dH2O:Ethanol at 1 mCi/ml. Poly rA:oligo dT template:primer was prepared as a stock solution by combining 150 μl poly rA (20 mg/ml) with 0.5 mL oligo dT (20 units/ml) and 5.35 ml sterile dH2O followed by aliquoting (1.0 ml) and storage at −20° C. The RT reaction buffer contained of 125 ml 1.0 M EGTA, 125 ml dH2O, 125 ml 20% Triton X100, 50 ml 1.0 M Tris (pH 7.4), 50 ml 1.0 M DTT, and 40 ml 1.0 M MgCl2. The final reaction mixture was prepared by combining 1 part 3H-TTP, 4 parts dH2O, 2.5 parts poly rA:oligo dT stock and 2.5 parts reaction buffer. To each well, ten microliters of the reaction mixture and 15 μl of virus containing supernatant were added. The plates were incubated at 37° C. for 60 minutes. Following incubation, the reaction volume was spotted onto DE81 filter-mats, washed 5 times for 5 minutes each in a 5% sodium phosphate buffer or 2×SSC. […] were washed 2 times for 1 minute each in distilled water, 2 times for 1 minute each in 70% ethanol, and then dried. Incorporated radioactivity (counts per minute, CPM) was quantified using standard liquid scintillation techniques.

HIV-1 K103N, Y181C (A17) = HIV-1 K103N, Y181C (A17) replication in PBMCs; format: cell-based
Excerpt: In another embodiment of the present disclosure compounds are provided which inhibit the replication of HIV strains resistant to NNRTIs. Compounds in this disclosure inhibit, A17, an HIV-1 virus with mutations in the RT non-nucleoside binding pocket, K103N and Y181C, in a dose-dependent susceptibility testing manner.
The asparagine variation at residue 103 and the cysteine variation at residue 181 are known to inhibit the activity of the NNRTI's.
Evaluation Dihydropyrimidines vs. HIV-1Ba-L and HIV-1 K103N, Y181C in PBMCs

[2] = Cytotoxicity by MTS staining in uninfected MAGI-CCR5 cells; format: cell-based; settings: human, read-out: TC50
Description: The anti-viral activity of dihydropyrimidines was shown by inhibition of virus replication in MAGI-CCR5 cells. MAGI-CCR5 cells are derived from HeLa-CD4-LTR-β-galactosidase cells. The cells have been engineered to express high levels of CD4 and CCR5 and contain one copy of the HIV-1 LTR promoter driving expression of the β-galactosidase gene upon HIV-1 Tat transactivation. On the day preceding the assay, the cells were plated at 1.0×10^4 cells per well and maintained at 37° C. and 5% CO2 in a humidified incubator. Total cell count and viability was visually assessed using a hemacytometer and trypan blue exclusion. Compounds were evaluated at six concentrations (triplicate wells/concentration). On the day of assay setup, compound dilutions were prepared at two-times (2×) the final concentrations. Media was decanted and wells were replenished with 50 μl of 2× compounds, followed by the addition of 50 μl of diluted virus. Identical uninfected assays were prepared for parallel cytotoxicity testing.

HIV-1Ba-L [3] = assay: Inhibition of virus replication in MAGI-CCR5 cells (β-galactosidase reporter); format: cell-based
Description: The anti-viral activity of dihydropyrimidines was shown by inhibition of virus replication in MAGI-CCR5 cells. MAGI-CCR5 cells are derived from HeLa-CD4-LTR-β-galactosidase cells. The cells have been engineered to express high levels of CD4 and CCR5 and contain one copy of the HIV-1 LTR promoter driving expression of the β-galactosidase gene upon HIV-1 Tat transactivation. On the day preceding the assay, the cells were plated at 1.0×10^4 cells per well and maintained at 37° C. and 5% CO2 in a humidified incubator. Total cell count and viability was visually assessed using a hemacytometer and trypan blue exclusion.
Compounds were evaluated at six concentrations (triplicate wells/concentration). On the day of assay setup, compound dilutions were prepared at two-times (2×) the final concentrations. Media was decanted and wells were replenished with 50 μl of 2× compounds, followed by the addition of 50 μl of diluted virus. Identical uninfected assays were prepared for parallel cytotoxicity testing.
Evaluation of Dihydropyrimidines vs. HIV-1Ba-L in MAGI-CCR5 Cells

[4] = Cytotoxicity by MTS staining in PBMCs; format: cell-based; settings: human, peripheral blood mononuclear cells (PBMC), read-out: TC50
Description: Cytotoxicity was assessed by MTS staining. At assay end-point, PBMC were stained with the addition of […] of the soluble tetrazolium-based dye MTS to determine cell viability and quantify compound toxicity. The plates were incubated 4 to 6 hrs at 37° C. Following incubation, the activity was assessed by reading absorbance values at 490/650 nm.

[5] = Human immunodeficiency virus 1, PBMC, 168 h
[6] = Human immunodeficiency virus 1, HIV-1Ba-L in MAGI-CCR5 cells, 48 hours, β-galactosidase reporter expression, read-out: IC50

| SMILES | TI (TC50/IC50) (HIV-1Ba-L [1]; HIV-1Ba-L in PBMCs) | IC50 (HIV-1Ba-L [1]; Human immunodeficiency virus 1, BAL, PBMC) | IC50 (HIV-1Ba-L [1]; [5]) | TI (TC50/IC50) (HIV-1Ba-L [1]; Virus Ba-L in PBMCs (Ba-L vs A17 comparison)) | IC50 (HIV-1 K103N, Y181C (A17); Human immunodeficiency virus 1, PBMC) | TI (TC50/IC50) (HIV-1 K103N, Y181C (A17); Virus A17 (K103N, Y181C) in PBMCs) | CC50 at 48 h [2] | TI (TC50/IC50) (HIV-1Ba-L [3]; HIV-1Ba-L in MAGI-CCR5 cells) | IC50 (HIV-1Ba-L [3]; [6]) | CC50 at 7 days ([4]; A17 line of the table) | CC50 at 7 days ([4]; Ba-L line of the table) | CC50 at 7 days ([4]; MTS staining) | IC50 (HIV-1Ba-L [3]; Human immunodeficiency virus 1, MAGI-CCR5, 48 h) |
| --- | --- | --- | --- | --- | --- | --- | --- | --- | --- | --- | --- | --- | --- |
| CC1=C(c2nc(-c3ccc(C#N)cc3)cs2)C(c2cc3ccccc3[nH]2)NC(=O)N1 (stereo not drawn) [Example 10] | C (C < 50.0-10.0) | 1 to 5 µM | 1 to 5 µM | B (B < 100.0-50.0) | 5 to 100 µM | D (D < 10.0) | < 50 µM | C (C < 50.0 to 10.0) | 1 to 5 µM | ≥ 100 µM | ≥ 100 µM | 50 to 100 µM |  |
| CC1=C(c2nc(-c3cccc(O)c3)cs2)C(c2cccc(O)c2)NC(=O)N1 (stereo not drawn) [Example 38] | D (D < 10.0) |  | 5 to 100 µM |  |  |  | 50 to 100 µM | D (D < 10.0) | 5 to 100 µM |  |  | 50 to 100 µM |  |
| COc1ccc(-c2csc(C3=C(C)NC(=O)NC3c3cc(Br)cs3)n2)cc1 (stereo not drawn) [Example 40] | D (D < 10.0) |  | 5 to 100 µM |  |  |  | ≥ 100 µM | D (D < 10.0) | > 100 µM |  |  | ≥ 100 µM |  |
| COc1ccc(-c2csc(C3=C(C)NC(=O)NC3c3ccc(-c4ccccc4)cc3)n2)cc1 (stereo not drawn) [Example 43] | D (D < 10.0) |  | 5 to 100 µM |  |  |  | ≥ 100 µM | D (D < 10.0) | > 100 µM |  |  | ≥ 100 µM |  |
| CC1=C(c2nc(-c3ccc(F)cc3)cs2)C(c2cccc(O)c2)NC(=O)N1 (stereo not drawn) [Example 44] | D (D < 10.0) |  | 5 to 100 µM |  |  |  | 50 to 100 µM | C (C < 50.0 to 10.0) | 1 to 5 µM |  |  | 50 to 100 µM |  |
| CC1=C(c2nc(-c3ccc(C#N)cc3)cs2)C(c2ccc(O)cc2)NC(=O)N1 (stereo not drawn) [Example 48] | A (A = TI (TC50/IC50) ≧100.0) |  | < 1 µM |  |  |  | ≥ 100 µM | A (A = TI (TC50/IC50) ≧ 100.0) | < 1 µM |  |  | ≥ 100 µM |  |
| CC1=C(c2nc(-c3ccc(C#N)cc3)cs2)C(c2cccc(F)c2)NC(=O)N1 (stereo not drawn) [Example 50] | A (A = TI (TC50/IC50) ≧100.0) |  | < 1 µM |  |  |  | ≥ 100 µM | C (C < 50.0 to 10.0) | 1 to 5 µM |  |  | ≥ 100 µM |  |
| CC1=C(c2nc(-c3ccc(C#N)cc3)cs2)C(c2ccc(Oc3ccccc3)cc2)NC(=O)N1 (stereo not drawn) [Example 59] | A (A = TI (TC50/IC50) ≧100.0) |  | < 1 µM |  |  |  | ≥ 100 µM | A (A = TI (TC50/IC50) ≧ 100.0) | < 1 µM |  |  | ≥ 100 µM |  |
| COc1ccc(C2NC(=O)NC(C)=C2c2nc(-c3ccc(C#N)cc3)cs2)cc1 (stereo not drawn) [Example 64] | A (A = TI (TC50/IC50) ≧100.0) |  | < 1 µM |  |  |  | < 50 µM | B (B < 100.0-50.0) | < 1 µM |  |  | ≥ 100 µM |  |
| CC1=C(c2nc(-c3cccc(C#N)c3)cs2)C(c2cccc(O)c2)NC(=O)N1C (stereo not drawn) [Example 68] | D (D < 10.0) |  | 5 to 100 µM |  |  |  | ≥ 100 µM | D (D < 10.0) | 5 to 100 µM |  |  | 50 to 100 µM |  |
| CC1=C(c2nc(-c3ccc(C#N)cc3)cs2)C(c2cccc(O)c2)NC(=O)N1C (stereo not drawn) [Example 69] | C (C < 50.0-10.0) |  | 1 to 5 µM |  |  |  | ≥ 100 µM | B (B < 100.0-50.0) | 1 to 5 µM |  |  | ≥ 100 µM |  |
| CC1=C(c2nc(-c3ccc(C#N)cc3)cs2)C(c2cccc(C(F)(F)F)c2)NC(=O)N1 (stereo not drawn) [Example 71] | C (C < 50.0-10.0) |  | 5 to 100 µM |  |  |  | ≥ 100 µM | B (B < 100.0-50.0) | 1 to 5 µM |  |  | ≥ 100 µM |  |
| CC1=C(c2nc(-c3ccc(Cl)cc3)cs2)C(c2cccc(O)c2)NC(=O)N1 (stereo not drawn) [Example 74] | C (C < 50.0-10.0) |  | 1 to 5 µM |  |  |  | 50 to 100 µM | C (C < 50.0 to 10.0) | 1 to 5 µM |  |  | 50 to 100 µM |  |
| CC1=C(c2nc(-c3ccc(C#N)cc3)cs2)C(c2cc(O)cc(O)c2)NC(=O)N1 (stereo not drawn) [Example 80] | B (B < 100.0-50.0) |  | 1 to 5 µM |  |  |  | ≥ 100 µM | D (D < 10.0) | > 100 µM |  |  | ≥ 100 µM |  |
| CC1=C(c2nc(-c3ccc(C#N)cc3)cs2)C(c2ccc(OCc3ccccc3)c(Cl)c2)NC(=O)N1 (stereo not drawn) [Example 81] | A (A = TI (TC50/IC50) ≧100.0) |  | < 1 µM |  |  |  | ≥ 100 µM | B (B < 100.0-50.0) | 1 to 5 µM |  |  | ≥ 100 µM |  |
| CC1=C(c2nc(-c3ccc(C#N)cc3)cs2)C(c2ccc(Oc3ccccc3)nc2)NC(=O)N1 (stereo not drawn) [Example 90] | C (C < 50.0-10.0) |  | 1 to 5 µM |  |  |  | ≥ 100 µM | A (A = TI (TC50/IC50) ≧ 100.0) | < 1 µM |  |  | 50 to 100 µM |  |
| CC1=C(c2nc(-c3ccc(C#N)cc3)cs2)C(c2ccc(N(C)C)nc2)NC(=O)N1 (stereo not drawn) [Example 91] | B (B < 100.0-50.0) |  | 1 to 5 µM |  |  |  | ≥ 100 µM | A (A = TI (TC50/IC50) ≧ 100.0) | < 1 µM |  |  | ≥ 100 µM |  |
| CC1=C(c2nc(-c3ccc(C#N)cc3)cs2)C(c2ccc(Cl)nc2Cl)NC(=O)N1 (stereo not drawn) [Example 92] | C (C < 50.0-10.0) |  | 1 to 5 µM |  |  |  | ≥ 100 µM | A (A = TI (TC50/IC50) ≧ 100.0) | < 1 µM |  |  | 50 to 100 µM |  |
| Cc1nnc(C(=O)NC(C)(C)c2nc(C(=O)NCc3ccc(F)cc3)c(O)c(=O)n2C)o1 [Raltegravir, reference compound] | >371.0 |  | 0.003 µM |  |  |  | > 100 µM | >3.85 |  |  |  | > 1 µM | 0.026 µM |
